Holding throughout (experiment): biochemical
Common to all, as to type: biochemical

Experiment [1] deals with T1, 382 unique human kinases (Homo sapiens, UniProt P07949).
T1 construct: purchased Reaction Biology (HotSpot contract assay)
To be noted: kinase RET, compound 10 uM; for remaining activity at 10 µM: read-out: % Enzyme Activity (relative to DMSO controls).

Experiment [2] addresses T2, 382 unique human kinases (Homo sapiens, UniProt O14757).
T2 construct: purchased Reaction Biology (HotSpot contract assay)
T2 sequence (O14757 1-476): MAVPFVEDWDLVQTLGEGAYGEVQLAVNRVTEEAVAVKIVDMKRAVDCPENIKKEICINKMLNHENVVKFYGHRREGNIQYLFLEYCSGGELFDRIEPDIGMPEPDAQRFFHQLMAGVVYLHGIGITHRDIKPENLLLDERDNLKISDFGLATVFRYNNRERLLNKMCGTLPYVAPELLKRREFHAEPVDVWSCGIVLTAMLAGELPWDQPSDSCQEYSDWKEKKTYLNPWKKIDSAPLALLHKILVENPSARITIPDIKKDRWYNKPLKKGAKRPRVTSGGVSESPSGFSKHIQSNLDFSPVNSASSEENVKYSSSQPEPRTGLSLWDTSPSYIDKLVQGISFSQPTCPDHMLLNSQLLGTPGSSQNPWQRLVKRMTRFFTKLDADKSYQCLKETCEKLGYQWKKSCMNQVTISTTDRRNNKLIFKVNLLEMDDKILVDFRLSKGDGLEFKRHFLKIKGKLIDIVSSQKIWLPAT
Particulars: CHK1, 10 uM; for remaining activity at 10 µM: read-out: % Enzyme Activity (relative to DMSO controls).

Experiment [3] concerns the target T3, 382 unique human kinases (Homo sapiens, UniProt P10721, T670I/V559D).
T3 construct: purchased Reaction Biology (HotSpot contract assay)
Particulars: c-Kit (V559D/T670I), 10 uM; for remaining activity at 10 µM: read-out: % Enzyme Activity (relative to DMSO controls).

Experiment [4] addresses T4, 382 unique human kinases (Homo sapiens, UniProt P29320).
T4 construct: purchased Reaction Biology (HotSpot contract assay)
T4 sequence (P29320 21-983): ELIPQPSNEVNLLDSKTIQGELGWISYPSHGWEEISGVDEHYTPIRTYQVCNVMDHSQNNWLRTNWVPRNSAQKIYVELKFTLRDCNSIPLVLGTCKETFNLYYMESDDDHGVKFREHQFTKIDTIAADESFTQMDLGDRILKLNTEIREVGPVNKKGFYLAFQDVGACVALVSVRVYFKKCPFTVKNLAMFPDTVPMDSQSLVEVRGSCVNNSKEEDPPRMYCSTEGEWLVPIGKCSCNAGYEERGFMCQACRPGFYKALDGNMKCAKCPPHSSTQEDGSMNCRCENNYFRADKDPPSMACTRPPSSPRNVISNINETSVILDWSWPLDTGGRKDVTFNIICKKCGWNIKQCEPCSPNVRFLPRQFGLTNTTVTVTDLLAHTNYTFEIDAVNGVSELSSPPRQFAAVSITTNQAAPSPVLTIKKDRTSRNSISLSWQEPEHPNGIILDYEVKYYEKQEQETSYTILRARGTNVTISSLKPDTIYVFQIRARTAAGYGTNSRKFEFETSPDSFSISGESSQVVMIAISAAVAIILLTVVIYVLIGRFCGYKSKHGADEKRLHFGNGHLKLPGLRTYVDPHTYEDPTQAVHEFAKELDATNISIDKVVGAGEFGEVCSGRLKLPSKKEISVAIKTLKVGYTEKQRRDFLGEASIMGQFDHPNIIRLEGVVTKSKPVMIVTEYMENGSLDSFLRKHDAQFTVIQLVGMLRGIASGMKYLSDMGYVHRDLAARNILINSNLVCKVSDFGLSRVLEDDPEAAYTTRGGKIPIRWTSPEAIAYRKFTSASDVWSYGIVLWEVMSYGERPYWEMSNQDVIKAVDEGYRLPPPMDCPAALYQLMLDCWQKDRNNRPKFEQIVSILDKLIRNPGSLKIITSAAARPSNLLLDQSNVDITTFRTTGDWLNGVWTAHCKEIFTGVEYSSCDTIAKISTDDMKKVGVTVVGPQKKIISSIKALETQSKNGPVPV
Particulars: EPHA3, 10 uM; for remaining activity at 10 µM: read-out: % Enzyme Activity (relative to DMSO controls).

Experiment [5] deals with T5, 382 unique human kinases (Homo sapiens, UniProt P45983).
T5 construct: purchased Reaction Biology (HotSpot contract assay)
To be noted: JNK1, 10 uM; for remaining activity at 10 µM: read-out: % Enzyme Activity (relative to DMSO controls).

For experiment [6], the target named is T6, 382 unique human kinases (Homo sapiens, UniProt Q9NZJ5).
T6 construct: purchased Reaction Biology (HotSpot contract assay)
T6 sequence (Q9NZJ5 30-1116): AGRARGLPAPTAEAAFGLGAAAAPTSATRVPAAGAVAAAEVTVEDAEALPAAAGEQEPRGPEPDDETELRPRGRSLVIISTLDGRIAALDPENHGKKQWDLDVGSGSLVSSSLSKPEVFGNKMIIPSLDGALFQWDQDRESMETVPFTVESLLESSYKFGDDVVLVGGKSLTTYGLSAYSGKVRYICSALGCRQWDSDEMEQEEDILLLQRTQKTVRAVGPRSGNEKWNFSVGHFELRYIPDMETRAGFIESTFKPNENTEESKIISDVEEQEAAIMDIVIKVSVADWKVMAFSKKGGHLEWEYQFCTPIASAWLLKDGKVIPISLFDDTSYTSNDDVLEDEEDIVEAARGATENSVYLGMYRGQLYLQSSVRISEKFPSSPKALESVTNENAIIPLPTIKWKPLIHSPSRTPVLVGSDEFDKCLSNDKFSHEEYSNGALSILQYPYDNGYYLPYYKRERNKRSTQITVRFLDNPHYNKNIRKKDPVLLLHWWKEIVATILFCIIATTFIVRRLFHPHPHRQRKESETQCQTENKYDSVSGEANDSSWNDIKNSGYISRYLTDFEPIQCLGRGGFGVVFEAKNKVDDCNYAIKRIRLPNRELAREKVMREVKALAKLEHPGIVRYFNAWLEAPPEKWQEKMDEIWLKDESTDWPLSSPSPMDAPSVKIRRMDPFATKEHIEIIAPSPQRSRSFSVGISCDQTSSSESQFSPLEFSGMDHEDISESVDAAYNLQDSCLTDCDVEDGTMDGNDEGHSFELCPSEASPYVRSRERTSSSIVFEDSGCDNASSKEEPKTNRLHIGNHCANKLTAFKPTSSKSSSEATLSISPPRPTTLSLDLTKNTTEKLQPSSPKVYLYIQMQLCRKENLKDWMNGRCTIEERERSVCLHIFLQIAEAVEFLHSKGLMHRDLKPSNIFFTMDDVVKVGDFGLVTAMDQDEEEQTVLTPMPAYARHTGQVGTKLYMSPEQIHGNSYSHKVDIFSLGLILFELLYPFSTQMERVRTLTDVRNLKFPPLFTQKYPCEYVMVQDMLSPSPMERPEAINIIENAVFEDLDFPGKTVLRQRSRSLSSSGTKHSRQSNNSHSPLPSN
To be noted: EIF2AK3, 10 uM; for remaining activity at 10 µM: read-out: % Enzyme Activity (relative to DMSO controls).

Experiment [7] addresses T7, 382 unique human kinases (Homo sapiens, UniProt Q9Y6E0).
T7 construct: purchased Reaction Biology (HotSpot contract assay)
To be noted: MST3/STK24, [ATP] 20 µM, compound 10 uM; for remaining activity at 10 µM: read-out: % Enzyme Activity (relative to DMSO controls).

T1 sequence (P07949 29-1114): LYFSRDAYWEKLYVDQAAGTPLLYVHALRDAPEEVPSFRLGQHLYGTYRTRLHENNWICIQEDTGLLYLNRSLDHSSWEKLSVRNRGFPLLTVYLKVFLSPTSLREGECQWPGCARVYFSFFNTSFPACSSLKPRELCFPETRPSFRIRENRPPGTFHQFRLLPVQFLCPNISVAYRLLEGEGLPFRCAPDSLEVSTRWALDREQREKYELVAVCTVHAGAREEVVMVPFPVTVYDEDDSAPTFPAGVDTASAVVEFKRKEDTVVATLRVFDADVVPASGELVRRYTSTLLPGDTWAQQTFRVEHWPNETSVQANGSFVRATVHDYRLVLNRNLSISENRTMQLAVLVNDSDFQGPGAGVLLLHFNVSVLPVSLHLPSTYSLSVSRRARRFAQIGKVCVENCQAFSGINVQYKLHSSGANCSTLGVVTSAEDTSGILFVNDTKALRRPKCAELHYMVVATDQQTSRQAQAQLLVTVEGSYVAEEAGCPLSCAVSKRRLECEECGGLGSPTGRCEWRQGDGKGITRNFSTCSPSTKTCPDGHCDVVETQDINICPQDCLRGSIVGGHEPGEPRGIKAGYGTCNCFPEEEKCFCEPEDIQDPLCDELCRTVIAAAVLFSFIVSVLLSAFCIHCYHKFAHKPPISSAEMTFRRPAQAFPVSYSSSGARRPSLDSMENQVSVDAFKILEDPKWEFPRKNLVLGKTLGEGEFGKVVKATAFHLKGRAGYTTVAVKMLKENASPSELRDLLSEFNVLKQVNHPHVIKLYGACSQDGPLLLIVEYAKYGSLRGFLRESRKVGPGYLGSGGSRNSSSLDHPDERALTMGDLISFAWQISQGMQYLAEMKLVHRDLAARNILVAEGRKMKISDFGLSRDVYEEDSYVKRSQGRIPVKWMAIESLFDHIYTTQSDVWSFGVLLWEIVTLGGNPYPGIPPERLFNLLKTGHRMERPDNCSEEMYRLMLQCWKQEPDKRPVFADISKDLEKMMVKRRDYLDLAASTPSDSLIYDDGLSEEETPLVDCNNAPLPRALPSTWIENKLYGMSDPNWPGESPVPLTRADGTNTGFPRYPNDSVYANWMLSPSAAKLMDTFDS
T7 sequence (Q9Y6E0 whole entry): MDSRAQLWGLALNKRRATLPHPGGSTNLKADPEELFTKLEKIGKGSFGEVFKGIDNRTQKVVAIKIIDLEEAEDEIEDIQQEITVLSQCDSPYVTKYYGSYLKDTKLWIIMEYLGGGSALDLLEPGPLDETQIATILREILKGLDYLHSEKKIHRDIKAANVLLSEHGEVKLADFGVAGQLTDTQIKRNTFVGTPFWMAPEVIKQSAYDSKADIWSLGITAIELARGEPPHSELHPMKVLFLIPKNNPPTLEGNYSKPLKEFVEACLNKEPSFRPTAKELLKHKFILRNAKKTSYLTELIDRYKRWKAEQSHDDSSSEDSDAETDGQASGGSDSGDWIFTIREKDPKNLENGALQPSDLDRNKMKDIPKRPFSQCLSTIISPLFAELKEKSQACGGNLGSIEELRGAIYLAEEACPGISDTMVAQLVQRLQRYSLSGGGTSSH
T3 sequence (P10721 26-976 V559D/T670I): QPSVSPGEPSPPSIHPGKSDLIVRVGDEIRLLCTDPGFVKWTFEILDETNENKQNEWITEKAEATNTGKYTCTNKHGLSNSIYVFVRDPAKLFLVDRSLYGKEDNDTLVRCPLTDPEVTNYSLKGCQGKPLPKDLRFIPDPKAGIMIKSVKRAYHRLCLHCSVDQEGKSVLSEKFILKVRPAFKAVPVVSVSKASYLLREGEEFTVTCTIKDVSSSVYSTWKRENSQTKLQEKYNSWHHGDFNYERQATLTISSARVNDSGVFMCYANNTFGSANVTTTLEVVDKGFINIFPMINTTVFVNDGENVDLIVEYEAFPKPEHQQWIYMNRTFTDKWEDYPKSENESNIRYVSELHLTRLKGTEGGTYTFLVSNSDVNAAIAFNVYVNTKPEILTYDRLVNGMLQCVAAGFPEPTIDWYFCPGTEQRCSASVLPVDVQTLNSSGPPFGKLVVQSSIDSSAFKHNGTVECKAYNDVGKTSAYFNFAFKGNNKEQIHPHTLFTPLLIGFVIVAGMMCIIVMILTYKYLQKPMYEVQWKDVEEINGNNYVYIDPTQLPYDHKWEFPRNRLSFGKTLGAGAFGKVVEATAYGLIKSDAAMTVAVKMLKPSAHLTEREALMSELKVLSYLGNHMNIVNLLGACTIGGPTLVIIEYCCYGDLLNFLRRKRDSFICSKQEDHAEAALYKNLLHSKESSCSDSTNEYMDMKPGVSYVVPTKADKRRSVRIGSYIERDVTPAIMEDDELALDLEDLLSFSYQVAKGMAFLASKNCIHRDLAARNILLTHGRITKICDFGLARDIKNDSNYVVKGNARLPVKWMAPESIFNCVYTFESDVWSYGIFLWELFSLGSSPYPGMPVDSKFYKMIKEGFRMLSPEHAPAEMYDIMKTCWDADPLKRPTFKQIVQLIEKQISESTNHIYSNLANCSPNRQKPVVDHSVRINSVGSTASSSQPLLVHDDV
T5 sequence (P45983 whole entry): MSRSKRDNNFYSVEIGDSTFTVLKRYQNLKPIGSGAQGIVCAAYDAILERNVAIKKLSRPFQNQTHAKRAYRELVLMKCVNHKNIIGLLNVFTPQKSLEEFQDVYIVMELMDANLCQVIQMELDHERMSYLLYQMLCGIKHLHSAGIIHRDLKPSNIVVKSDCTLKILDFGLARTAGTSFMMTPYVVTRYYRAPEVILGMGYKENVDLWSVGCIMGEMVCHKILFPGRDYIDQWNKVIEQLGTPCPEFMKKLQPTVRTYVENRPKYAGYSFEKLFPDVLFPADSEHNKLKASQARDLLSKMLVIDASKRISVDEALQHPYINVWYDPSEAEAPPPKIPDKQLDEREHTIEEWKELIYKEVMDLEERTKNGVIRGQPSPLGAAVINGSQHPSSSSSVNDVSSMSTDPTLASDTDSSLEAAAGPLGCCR

As for `CC(C)c1cc(-c2n[nH]c(=O)n2-c2ccc3c(ccn3C)c2)c(O)cc1O` [Ganetespib (STA9090)], the remaining activity at 10 µM is 84.5% in experiment [1], 74.7% in experiment [2], 67.9% in experiment [3] and 73.7% in experiment [4].

Turning to `CC(C)c1cc(-c2n[nH]c(=O)n2-c2ccc3c(ccn3C)c2)c(O)cc1O` [Ganetespib], the remaining activity at 10 µM worked out at 99.3% in experiment [5], 101% in experiment [6] and 72.1% in experiment [7].

With `CCNC(=O)c1noc(-c2cc(C(C)C)c(O)cc2O)c1-c1ccc(CN2CCOCC2)cc1` [Luminespib (AUY-922)], the “% Enzyme Activity (relative to DMSO controls)” value came out at 94.03% in experiment [1], 105.20% in experiment [2], 91.06% in experiment [3] and 100.00% in experiment [4]. Also, the remaining activity at 10 µM in experiment [1] was 94.4%; in experiment [2], 106%; in experiment [3] it was 91.5%; in experiment [4] it was 104%.

For `CCNC(=O)c1noc(-c2cc(C(C)C)c(O)cc2O)c1-c1ccc(CN2CCOCC2)cc1` [Luminespib], the “% Enzyme Activity (relative to DMSO controls)” value in experiment [5] stood at 101.32%; in experiment [6], 103.58%; in experiment [7], 58.15%. The remaining activity at 10 µM in experiment [5] amounted to 103%; in experiment [6], 104%; in experiment [7], 60%.

The record behind these values is publication PMC8550792, “Evolution of kinase polypharmacology across HSP90 drug discovery” (Cell Chemical Biology, 2021).
